# Reference: ChEMBL document CHEMBL1130845, “Modulation of multidrug resistance by taxuspine C and other taxoids from Japanese yew” (Bioorg Med Chem Lett, 1998)
# Columns and labels:
# [1] = Cytotoxic activity was evaluated against Epidermoid Carcinoma KB cells; type: functional, cell-based; settings: Homo sapiens
# L1210 = experiment: Cytotoxic activity was evaluated against murine Leukemia L1210 cells; type: functional, cell-based; settings: Mus musculus
# Mus musculus [2] = experiment: Compound was evaluated for antitumor activity in P388/VCR-bearing mice at 200 mg/Kg; type: functional
# Mus musculus [3] = experiment: Compound was evaluated for antitumor activity in P388/VCR-bearing mice at 200 mg/kg in the presence of vincristine at 0.2 mg/kg; type: functional
# Mus musculus [4] = experiment: Compound was evaluated for antitumor activity in P388/VCR-bearing mice at 200 mg/kg as in the presence of vincristine at the 0.1 mg/kg; type: functional
# Mus musculus [5] = experiment: Compound was evaluated for antitumor activity in P388/VCR-bearing mice at 200 mg/Kg as in the presence of vincristine at 0.1 mg/kg; type: functional
# Mus musculus [6] = experiment: Compound was evaluated for antitumor activity in P388/VCR-bearing mice at 200 mg/kg in the presence of vincristine at 0.1 mg/kg; type: functional
# [7] = Effect on cellular accumulation of Vincristine in multidrug resistant human ovarian cancer 2780AD cells was determined at a dose 10 ug/mL; type: functional, A2780 ADR
# [8] = Effect on cellular accumulation of Vincristine in multidrug resistant human ovarian cancer 2780AD cells was determined in the presence at a dose 10 ug/mL of taxoids; type: functional, A2780 ADR
# Mus musculus [9] = experiment: Compound was evaluated for antitumor activity in P388/VCR-bearing mice at 0.2 mg/Kg as percent ratio of median survival time of treated mice to control mice; type: functional
# Mus musculus [10] = experiment: Compound was evaluated for antitumor activity in P388/VCR-bearing mice at 0.2 mg/Kg as range.; type: functional
# Mus musculus [11] = experiment: Compound was evaluated for antitumor activity in P388/VCR-bearing mice at 0.2 mg/Kg as in the presence of vincristine at 0.1 mg/kg as the ratio of median survival time of treated mice to control mice; type: functional
# Mus musculus [12] = experiment: Compound was evaluated for antitumor activity in P388/VCR-bearing mice at 0.2 mg/Kg in the presence of vincristine at 0.1 mg/kg as range.; type: functional
# Mus musculus [13] = experiment: Compound was evaluated for antitumor activity in P388/VCR-bearing mice at 0.2 mg/Kg as the ratio of median survival time of treated mice to control mice; type: functional
# Mus musculus [14] = experiment: Compound was evaluated for antitumor activity in P388/VCR-bearing mice at 0.2 mg/Kg in the presence of vincristine at 0.1 mg/kg as percent ratio of median survival time of treated mice to control mice; type: functional
Structure (SMILES),IC50 [1] [µg/mL],IC50 (L1210) [µg/mL],other results
CC(=O)O[C@@]12CO[C@@H]1C[C@H](O)[C@@]1(C)C(=O)[C@H](OC(=O)CC(C)O)C3=C(C)[C@@H](OC(=O)[C@H](O)[C@@H](NC(=O)c4ccccc4)c4ccccc4)C[C@@](O)([C@@H](OC(=O)c4ccccc4)[C@H]21)C3(C)C (some centres undefined),0.0025,0.95,–
C=C1[C@@H](O)CC[C@@]2(C)[C@@H](O)[C@H](OC(C)=O)C3=C(C)C(=O)C[C@@H]([C@@H](O)[C@H]12)C3(C)C,> 10,> 10,–
C=C1[C@@H](O)C[C@H](OC(C)=O)[C@@]2(C)[C@@H](OC(C)=O)[C@H](OC(C)=O)C3=C(C)[C@@H](O)C[C@@H]([C@@H](OC(C)=O)[C@H]12)C3(C)C,9.2,> 10,–
CCCCCC(=O)N(C)[C@@H](c1ccccc1)[C@@H](O)C(=O)O[C@H]1C[C@@]2(O)[C@@H](OC(=O)c3ccccc3)[C@@H]3[C@]4(OC(C)=O)CO[C@@H]4C[C@H](O)[C@@]3(C)C(=O)[C@H](OC(C)=O)C(=C1C)C2(C)C,0.17,0.48,–
C=C1[C@@H](OC(=O)/C=C/c2ccccc2)CC[C@@]2(C)[C@@H](OC(C)=O)[C@H](OC(C)=O)C3=C(C)[C@@H](OC(C)=O)C[C@@H]([C@@H](O)[C@H]12)C3(C)C,9.2,5.8,–
C=C1[C@@H](OC(=O)/C=C/c2ccccc2)C[C@H](O)[C@@]2(C)[C@@H](O)[C@H](OC(C)=O)C3=C(C)C(=O)C[C@@H]([C@@H](O)[C@H]12)C3(C)C,8.5,> 10,–
C=C1[C@@H](O)CC[C@@]2(C)[C@@H](OC(C)=O)[C@H](O)C3=C(C)C(=O)C[C@@H]([C@@H](O)[C@H]12)C3(C)C,> 10,> 10,–
C=C1C2[C@H](OC(C)=O)[C@@H]3CC(=O)[C@@H](C)C([C@@H](OC(C)=O)[C@H](OC(C)=O)[C@]2(C)CC[C@@H]1OC(=O)/C=C/c1ccccc1)C3(C)C (some centres undefined),> 10,5.8,T/C (Mus musculus [2]): 138%; Median T/C (Mus musculus [3]): 15.8 days; Range (Mus musculus [3]): 12 days; T/C (Mus musculus [4]): 105%; Range (Mus musculus [5]): 10 days; Median T/C (Mus musculus [6]): 12 days
CC(=O)O[C@H]1C2=C(CO)[C@@H](O)CC[C@@]2(C)[C@@H](OC(C)=O)[C@H](OC(C)=O)[C@@]2(O)[C@H](C)C(=O)C[C@@H]1C2(C)C,2.6,> 10,VCR accumulation [7]: 203
CC(=O)O[C@H]1C(=O)[C@@]2(C)[C@H]([C@H](OC(=O)c3ccccc3)[C@]3(O)C[C@H](O)C(C)=C1C3(C)C)[C@]1(OC(C)=O)CO[C@@H]1C[C@@H]2O [BACCATIN III],10,> 10,VCR accumulation [8]: 84
CC(=O)O[C@H]1C(=O)[C@@]2(C)[C@H]([C@H](OC(=O)c3ccccc3)[C@]3(O)C[C@H](OC(=O)[C@H](O)[C@@H](NC(=O)c4ccccc4)c4ccccc4)C(C)=C1C3(C)C)[C@]1(OC(C)=O)CO[C@@H]1C[C@@H]2O [PACLITAXEL],–,0.33,–
C=C1[C@@H](OC(=O)/C=C/c2ccccc2)C[C@H](OC(C)=O)[C@]2(C)[C@@H]1C[C@@H]1C[C@H](O)C(C)=C([C@@H](OC(C)=O)[C@@H]2OC(C)=O)C1(C)C [TAXEZOPIDINE H],> 10,6.2,–
C=C1[C@@H](OC(=O)/C=C/c2ccccc2)CC[C@@]2(C)[C@@H](OC(C)=O)[C@H](OC(C)=O)[C@@]34[C@H](C)C(=O)C[C@@H]([C@@H](OC(C)=O)[C@@]132)C4(C)C [TAXUSPINE C],> 10,> 10,–
CC[C@]1(O)C[C@H]2CN(CCc3c([nH]c4ccccc34)[C@@](C(=O)OC)(c3cc4c(cc3OC)N(C=O)[C@H]3[C@@](O)(C(=O)OC)[C@H](OC(C)=O)[C@]5(CC)C=CCN6CC[C@]43[C@@H]65)C2)C1 [VINCRISTINE],–,–,T/C (Mus musculus [9]): 110%; Range (Mus musculus [10]): 10 days; Median T/C (Mus musculus [11]): 10.6 days; Range (Mus musculus [12]): 10 days; Median T/C (Mus musculus [13]): 12.6 days; T/C (Mus musculus [14]): 92%
